Cc1c([N+](=O)[O-])c(C)c([N+](=O)[O-])c(C(C)(C)C)c1[N+](=O)[O-]
solubility (mole fraction)
Conditions | in DMAc | in THF | in cyclohexane | in ethanol | in ethyl acetate | in isopropanol | in methanol | in n-butanol | in n-heptane | in n-hexane
278.15 K | 0.0918 | 0.0786 | 0.00467 | 0.00168 | 0.0953 | 0.00128 | 0.00185 | 0.00245 | 0.00262 | 0.00225
283.15 K | 0.112 | 0.0889 | 0.00588 | 0.00207 | 0.115 | 0.00165 | 0.00234 | 0.00308 | 0.00321 | 0.00284
288.15 K | 0.134 | 0.1 | 0.00739 | 0.00254 | 0.136 | 0.00211 | 0.00295 | 0.00374 | 0.00402 | 0.00359
293.15 K | 0.156 | 0.112 | 0.00925 | 0.00311 | 0.158 | 0.00269 | 0.00369 | 0.0045 | 0.00496 | 0.00437
298.15 K | 0.179 | 0.126 | 0.0116 | 0.00378 | 0.182 | 0.00343 | 0.00459 | 0.00553 | 0.00609 | 0.00557
303.15 K | 0.205 | 0.139 | 0.0145 | 0.00458 | 0.207 | 0.00437 | 0.00569 | 0.00666 | 0.00752 | 0.00685
308.15 K | 0.232 | 0.156 | 0.0182 | 0.00552 | 0.233 | 0.00557 | 0.00704 | 0.00806 | 0.00931 | 0.00842
313.15 K | 0.263 | 0.173 | 0.0229 | 0.00663 | 0.262 | 0.00713 | 0.00868 | 0.00974 | 0.0114 | 0.0104

Reference: BigSolDB 2.1
